Assay results reported in patent US11091479B2, “Triazolopyridin-3-ones or their salts and pharmaceutical compositions comprising the same” (YUHAN CORPORATION, priority 2018, dated 2021).
Counter-ions that a name gives are not always drawn.

Columns and labels:
Assay type in all cases: biochemical
[1] = target: T1, recombinant human MAO-A (monoamine oxidase-A) (Homo sapiens, UniProt P21397); assay: Activity on recombinant human MAO-A, method similar to VAP-1 assay, 0.5 mM tyramine substrate; conditions: read-out: Inhibitory Activity (IC50, nM) MAO-A
T1 construct: purchased Sigma-Aldrich
T1 sequence (P21397 1-527): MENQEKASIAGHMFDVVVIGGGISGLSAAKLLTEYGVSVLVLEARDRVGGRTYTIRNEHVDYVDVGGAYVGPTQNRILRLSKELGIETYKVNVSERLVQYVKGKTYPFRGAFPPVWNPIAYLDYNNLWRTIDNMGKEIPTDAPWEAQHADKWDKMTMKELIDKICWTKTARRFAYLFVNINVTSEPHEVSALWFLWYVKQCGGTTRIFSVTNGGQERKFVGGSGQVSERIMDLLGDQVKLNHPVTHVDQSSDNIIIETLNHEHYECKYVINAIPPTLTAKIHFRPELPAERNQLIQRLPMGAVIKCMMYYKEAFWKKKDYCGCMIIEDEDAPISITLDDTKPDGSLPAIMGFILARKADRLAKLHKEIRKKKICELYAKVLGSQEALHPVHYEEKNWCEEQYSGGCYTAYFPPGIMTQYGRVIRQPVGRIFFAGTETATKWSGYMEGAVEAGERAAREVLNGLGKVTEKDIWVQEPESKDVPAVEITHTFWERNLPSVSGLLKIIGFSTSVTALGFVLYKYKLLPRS
Description: (§1) The compounds according to the present technology were evaluated in terms of activity on recombinant human VAP-1 (R&D systems) by measuring the level of hydrogen peroxide in horseradish peroxidase (HRP)-coupled reaction using Amplex Red Hydrogen Peroxide Assay Kit (Molecular Probes, Invitrogen, USA). The experiment was carried out at room temperature using benzylamine as a substrate. In the HRP-coupled reaction, hydrogen peroxide oxidation of 10-acetyl-3,7-dihydroxyphenoxazine (Amplex Red reagent) produces resorufin, which is a highly fluorescent compound. Briefly, the test compound was dissolved in dimethyl sulfoxide (DMSO) at a concentration of 20 mM. The dose-response assessment was made by 1:3 serial dilution in DMSO, thereby creating a 8 point curve. The concentration of the upper part was controlled according to the efficacy of the compounds, followed by dilution with a reaction buffer solution to obtain a final DMSO concentration of less than 1%. To each well of a 96 black well plate, human VAP-1 purified in 50 mM sodium phosphate buffer solution (pH7.4) was added. The test compounds dissolved in DMSO were incubated with the human VAP-1 enzymes at 37° C. for 30 minutes. After 30-minute incubation, each well was added with a reaction mixture containing 200 uM Amplex Red reagent prepared from 50 mM sodium phosphate buffer solution (pH 7.4), 1 mM benzylamine, and 1 U/mL HRP. Fluorescence intensity was measured at several time points during 1-2 hours using a microplate reader (Flexstation3, Molecular Devices) under the wavelength condition exciting at 544 nm and reading the emission at 590 nm. The inhibitory effect of the compounds was measured as a decrease (%) in the signal rate as compared to the control group without any inhibitor (only diluted DMSO). Data was fixed to a logistic model with four variables and IC50 value was calculated using GraphPad Prism program.
(§2) In addition, the compounds according to the present technology were evaluated in terms of activity on a recombinant human MAO-A (monoamine oxidase-A, Sigma-Aldrich) and a recombinant human MAO-B(monoamine oxidase-B, Sigma-Aldrich) by using as substrates, 0.5 mM tyramine and 1 mM benzylamine, respectively, with a method similar to the activity evaluation method for recombinant human VAP-1. The compounds according to the present technology were also evaluated in terms of activity on a recombinant human DAO (diamine oxidase, R&D systems) by using as a substrate 1 mM putrescine with a method similar to the activity evaluation method for recombinant human VAP-1.

[2] = target: T2, recombinant human DAO (diamine oxidase) (Homo sapiens, UniProt P19801); assay: Activity on recombinant human DAO, method similar to VAP-1 assay, 1 mM putrescine substrate; conditions: read-out: Inhibitory Activity (IC50, nM) DAO
T2 construct: purchased R&D systems
T2 sequence (P19801 20-751): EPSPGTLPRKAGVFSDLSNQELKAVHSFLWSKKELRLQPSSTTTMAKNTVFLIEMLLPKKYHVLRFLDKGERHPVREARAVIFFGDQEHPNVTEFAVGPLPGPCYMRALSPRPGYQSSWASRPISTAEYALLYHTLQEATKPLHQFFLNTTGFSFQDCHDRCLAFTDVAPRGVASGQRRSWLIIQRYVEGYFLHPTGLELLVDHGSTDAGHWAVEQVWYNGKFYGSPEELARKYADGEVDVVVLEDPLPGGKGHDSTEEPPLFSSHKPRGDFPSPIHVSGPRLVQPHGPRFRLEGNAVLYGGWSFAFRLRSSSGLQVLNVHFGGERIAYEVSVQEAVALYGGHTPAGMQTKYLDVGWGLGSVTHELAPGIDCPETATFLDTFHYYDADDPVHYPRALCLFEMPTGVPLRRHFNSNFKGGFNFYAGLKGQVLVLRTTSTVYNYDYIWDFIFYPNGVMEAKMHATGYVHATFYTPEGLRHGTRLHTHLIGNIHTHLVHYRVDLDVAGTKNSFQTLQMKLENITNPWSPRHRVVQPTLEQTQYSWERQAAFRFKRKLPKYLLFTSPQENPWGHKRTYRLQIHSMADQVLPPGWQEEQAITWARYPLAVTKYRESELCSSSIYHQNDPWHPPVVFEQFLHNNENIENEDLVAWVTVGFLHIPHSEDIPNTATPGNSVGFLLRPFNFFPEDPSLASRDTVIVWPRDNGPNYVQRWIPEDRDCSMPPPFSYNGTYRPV
Description: as §1, §2

recombinant human VAP-1 = target: T3, recombinant human VAP-1 (Homo sapiens, UniProt Q16853); assay: Activity on recombinant human VAP-1, HRP-coupled Amplex Red hydrogen peroxide assay, benzylamine substrate; conditions: 30 min incubation at 37° C., 1 mM benzylamine, read-out: Inhibitory Activity (IC50, nM) human VAP-1
T3 construct: purchased R&D systems
T3 sequence (Q16853 1-763): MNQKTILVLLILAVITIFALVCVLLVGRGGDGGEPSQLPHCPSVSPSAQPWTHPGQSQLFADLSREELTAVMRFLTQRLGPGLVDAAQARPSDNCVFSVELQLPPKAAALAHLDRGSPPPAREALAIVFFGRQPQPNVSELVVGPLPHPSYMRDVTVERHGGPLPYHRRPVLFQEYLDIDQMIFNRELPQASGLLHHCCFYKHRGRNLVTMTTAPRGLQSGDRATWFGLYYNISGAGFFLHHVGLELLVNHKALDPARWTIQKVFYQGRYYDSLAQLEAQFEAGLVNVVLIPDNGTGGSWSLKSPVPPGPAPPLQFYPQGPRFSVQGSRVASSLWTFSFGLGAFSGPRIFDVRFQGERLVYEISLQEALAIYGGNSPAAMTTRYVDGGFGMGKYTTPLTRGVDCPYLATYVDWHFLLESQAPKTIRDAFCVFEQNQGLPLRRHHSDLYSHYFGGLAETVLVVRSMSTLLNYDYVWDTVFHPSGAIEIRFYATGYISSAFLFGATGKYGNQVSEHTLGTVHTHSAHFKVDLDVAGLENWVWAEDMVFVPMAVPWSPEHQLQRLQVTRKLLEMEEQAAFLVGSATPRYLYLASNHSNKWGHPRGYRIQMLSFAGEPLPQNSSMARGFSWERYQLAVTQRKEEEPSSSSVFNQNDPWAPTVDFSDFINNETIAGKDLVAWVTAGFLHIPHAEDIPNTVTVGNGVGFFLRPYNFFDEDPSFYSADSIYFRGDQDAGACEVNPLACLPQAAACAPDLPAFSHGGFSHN
Description: as §1

[3] = target: T4, recombinant human MAO-B (monoamine oxidase-B) (Homo sapiens, UniProt P27338); assay: Activity on recombinant human MAO-B, method similar to VAP-1 assay, 1 mM benzylamine substrate; conditions: read-out: Inhibitory Activity (IC50, nM) MAO-B
T4 construct: purchased Sigma-Aldrich
T4 sequence (P27338 1-520): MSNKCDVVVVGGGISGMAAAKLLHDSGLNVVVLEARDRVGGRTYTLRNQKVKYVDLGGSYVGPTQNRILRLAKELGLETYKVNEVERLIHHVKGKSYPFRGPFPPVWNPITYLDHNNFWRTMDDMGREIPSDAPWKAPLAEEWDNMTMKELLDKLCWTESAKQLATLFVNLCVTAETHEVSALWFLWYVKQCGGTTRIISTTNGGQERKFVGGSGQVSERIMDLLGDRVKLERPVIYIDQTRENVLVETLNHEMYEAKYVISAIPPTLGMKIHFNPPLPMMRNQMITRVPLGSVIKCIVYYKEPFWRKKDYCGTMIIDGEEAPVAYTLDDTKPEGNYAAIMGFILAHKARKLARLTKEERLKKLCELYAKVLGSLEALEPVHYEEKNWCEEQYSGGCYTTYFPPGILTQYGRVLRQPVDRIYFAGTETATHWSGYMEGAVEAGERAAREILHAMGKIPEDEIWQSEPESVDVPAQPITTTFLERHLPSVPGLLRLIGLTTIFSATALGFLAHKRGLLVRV
Description: as §1, §2

Row | IC50 [1] [nM] | IC50 [2] [nM] | IC50 (recombinant human VAP-1) [nM] | IC50 [3] [nM] | Compound
1 | > 100000 | < 100 | 2.1 | 73 | NC/C(=C\F)Cn1nc2ccc(-c3cccc(-c4nc[nH]n4)c3)cn2c1=O [Example 6, 2-[(2E)-2-(aminomethyl)-3-fluoroprop-2-en-1-yl]-6-[3-(1H-1,2,4-triazol-3-yl)phenyl][1,2,4]triazolo[4,3-a]pyridin-3(2H)-one]
2 | > 100000 | 0.2 | 2.3 | 25 | NC/C(=C\F)Cn1nc2ccc(-c3ccc(-c4ccon4)cc3)cn2c1=O [Example 7, 2-[(2E)-2-(aminomethyl)-3-fluoroprop-2-en-1-yl]-6-[4-(1,2-oxazol-3-yl)phenyl][1,2,4]triazolo[4,3-a]pyridin-3(2H)-one hydrochloride]
3 | > 100000 | 0.2 | 12 | 37 | NC/C(=C\F)Cn1nc2ccc(-c3ccc(C(F)(F)F)nc3)cn2c1=O [Example 9, 2-[(2E)-2-(aminomethyl)-3-fluoroprop-2-en-1-yl]-6-[6-(trifluoromethyl)pyridin-3-yl][1,2,4]triazolo[4,3-a]pyridin-3(2H)-one hydrochloride]
4 | > 100000 | < 100 | 6.6 | 64 | NC/C(=C\F)Cn1nc2ccc(-c3ccc(N4CCOCC4)nc3)cn2c1=O [Example 10, 2-[(2E)-2-(aminomethyl)-3-fluoroprop-2-en-1-yl]-6-[6-(morpholin-4-yl)pyridin-3-yl][1,2,4]triazolo[4,3-a]pyridin-3(2H)-one trifluoroacetate]
5 | 14000 | 1.1 | 3.4 | < 10 | NC/C(=C\F)Cn1nc2ccc(-c3ccc4c(c3)OCO4)cn2c1=O [Example 12, 2-[(2E)-2-(aminomethyl)-3-fluoroprop-2-en-1-yl]-6-(1,3-benzodioxol-5-yl)[1,2,4]triazolo[4,3-a]pyridin-3(2H)-one hydrochloride]
6 | > 100000 | < 100 | 4.8 | 15 | NC/C(=C\F)Cn1nc2ccc(-c3ccc4c(c3)OCCO4)cn2c1=O [Example 13, 2-[(2E)-2-(aminomethyl)-3-fluoroprop-2-en-1-yl]-6-(2,3-dihydro-1,4-benzodioxin-6-yl)[1,2,4]triazolo[4,3-a]pyridin-3(2H)-one trifluoroacetate]
7 | > 100000 | < 100 | 6.2 | 69 | NC/C(=C\F)Cn1nc2ccc(-c3ccc4sc(N)nc4c3)cn2c1=O [Example 14, 6-(2-amino-1,3-benzothiazol-5-yl)-2-[(2E)-2-(aminomethyl)-3-fluoroprop-2-en-1-yl][1,2,4]triazolo[4,3-a]pyridin-3(2H)-one trifluoroacetate]
8 | > 100000 | < 100 | 9.3 | 597 | CC(=O)Nc1nc2cc(-c3ccc4nn(C/C(=C/F)CN)c(=O)n4c3)ccc2s1 [Example 15, N-[5-[2-[(2E)-2-(aminomethyl)-3-fluoroprop-2-en-1-yl]-3-oxo-2,3-dihydro[1,2,4]triazolo[4,3-a]pyridin-6-yl]-1,3-benzothiazol-2-yl]acetamide trifluoroacetate]
9 | 10200 | < 100 | 4.5 | 52 | NC/C(=C\F)Cn1nc2ccc(-c3ccc4nonc4c3)cn2c1=O [Example 16, 2-[(2E)-2-(aminomethyl)-3-fluoroprop-2-en-1-yl]-6-(2,1,3-benzoxadiazol-5-yl)[1,2,4]triazolo[4,3-a]pyridin-3(2H)-one trifluoroacetate]
10 | > 100000 | 0.3 | 0.6 | 290 | Cc1cc(-c2ccc3nn(C/C(=C/F)CN)c(=O)n3c2)cc2c1NC(=O)CC2 [Example 17, 6-[2-[(2E)-2-(aminomethyl)-3-fluoroprop-2-en-1-yl]-3-oxo-2,3-dihydro[1,2,4]triazolo[4,3-a]pyridin-6-yl]-8-methyl-3,4-dihydroquinolin-2(1H)-one hydrochloride]
11 | > 100000 | 12 | 0.7 | 180 | CS(=O)(=O)c1cccc(-c2ccn3c(=O)n(C/C(=C/F)CN)nc3c2)c1 [Example 22, 2-[(2E)-2-(aminomethyl)-3-fluoroprop-2-en-1-yl]-7-[3-(methylsulfonyl)phenyl][1,2,4]triazolo[4,3-a]pyridin-3(2H)-one hydrochloride]
